Laboratory results as given in publication PMC3737437, “The malQ gene is essential for starch metabolism in Streptococcus mutans” (Journal of Oral Microbiology, 2013).

Molecular target: T1, GlgP (Streptococcus mutans, UniProt Q8DT31)
T1 construct: gene overlapping malQ by 29 nt, not the second phosphorylase phsG
T1 sequence (Q8DT31 1-758): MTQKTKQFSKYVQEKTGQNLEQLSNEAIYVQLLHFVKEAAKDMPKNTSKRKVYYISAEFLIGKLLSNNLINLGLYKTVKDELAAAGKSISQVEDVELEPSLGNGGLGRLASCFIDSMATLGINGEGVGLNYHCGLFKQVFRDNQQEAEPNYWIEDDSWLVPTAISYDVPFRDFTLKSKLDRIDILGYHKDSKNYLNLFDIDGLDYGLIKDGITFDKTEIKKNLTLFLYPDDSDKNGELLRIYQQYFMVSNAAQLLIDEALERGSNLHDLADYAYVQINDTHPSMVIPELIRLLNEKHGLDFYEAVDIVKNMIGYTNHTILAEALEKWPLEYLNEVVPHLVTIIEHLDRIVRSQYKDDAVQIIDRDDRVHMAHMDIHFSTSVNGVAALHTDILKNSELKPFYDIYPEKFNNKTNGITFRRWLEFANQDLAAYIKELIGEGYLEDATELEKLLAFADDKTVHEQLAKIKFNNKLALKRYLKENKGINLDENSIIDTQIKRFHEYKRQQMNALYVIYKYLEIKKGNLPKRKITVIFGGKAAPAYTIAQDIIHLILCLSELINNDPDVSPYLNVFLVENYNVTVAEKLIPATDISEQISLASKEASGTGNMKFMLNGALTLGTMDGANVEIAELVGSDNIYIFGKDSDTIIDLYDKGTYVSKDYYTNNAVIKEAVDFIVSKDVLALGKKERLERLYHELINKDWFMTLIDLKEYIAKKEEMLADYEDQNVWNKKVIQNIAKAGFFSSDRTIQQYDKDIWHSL
Assay: phosphorylase assay, phosphoglucomutase / glucose-6-phosphate dehydrogenase-NADP end-point at […] nm
Assay type: biochemical
Settings: formed from 1% maltodextrin or 0.8% amylodextrin, 50 mM potassium phosphate pH 7, 0.5 mM MgCl2, 37 °C, 10 min

Compound: O=P(O)(O)O[C@H]1O[C@H](CO)[C@@H](O)[C@H](O)[C@H]1O [glucose-1-phosphate]
- phosphorylase assay, phosphoglucomutase / glucose-6-phosphate dehydrogenase-NADP: generated glucose-1-phosphate from maltodextrin and amylodextrin
